Results published in patent US20210000907A1, “MICRONEEDLE-MEDIATED DELIVERY OF TOLEROGENIC IMMUNOTHERAPEUTICS” (University of Maryland, College Park, priority 2017, published 2021).

What was measured:
Type in all cases: in vivo
[1] = test system: lymphocytes, TREG, CD45+CD4+ T cells; assay: Flow cytometry of cervical LNs, spleen and spinal cord in RR-EAE mice; details: Day 10 and Day 12, relative to untreated mice with RR-EAE
Experimental: To analyze this, we analyzed whether GA-MN could increase TREG, and, that because of the decreased clinical scores in FIG. 3, these effects might be evident in cervical LNs. Using analogous regimens to FIG. 3 panel D (RR-EAE), mice were euthanized at Day 10 and Day 12, then cervical LNs and spleen were assessed by flow cytometry. Relative to untreated mice with RR-EAE, GA-MN increased both the number of lymphocytes (FIG. 4 panel A) and the number of TREG (FIG. 4 panel B); these effects were not observed in mice treated with soluble GA. […] At day 12, we assessed the number of lymphocytes and activated CD4^+ T cells, as indicated by staining for CD45^+/CD4^+ cells. Though the group sizes (N=5) were insufficient for statistical significance, we observed a trend that GA-MN decreased the number of lymphocytes the spinal cord (FIG. 5 panel A), as well as the number of infiltrating CD45^+CD4^+ cells (FIG. 5 panels B and C). The data in these Examples indicate GA-MNs deliver GA through the skin of mice at doses that provide efficacy in EAE and RR-EAE.

[2] = test system: relapsing-remitting EAE (RR-EAE); assay: Relapsing-remitting EAE (RR-EAE) driven by PLP in SJL/J mice; details: 0.2 mg/treatment on days 6, 9, 12, by MN or soluble i.p. injection; for RR-EAE mean score: measured at the last treatment day
Experimental: (§1) We confirmed the activity and dose-dependence of traditional GA regimens using daily GA injections (i.p.) at 0.2 or 2.0 mg/day beginning at disease onset in EAE (arrows; N=10/group). As discussed above, EAE is a progressive mouse model of MOG-driven inflammation that results in severe paralysis over several weeks; higher clinical scores indicate more severe disease (FIG. 3, panel A). Next we formulated GA-MNs (with sucrose stabilizer) such that a single MN patch contained 0.2 mg—confirmed by dissolution and fluorimetry—to match the ineffective injected GA dose in FIG. 3 panel A. The actual amount of GA delivered from MNs is likely less than the total GA loading due to accumulation on the backing. Mice were then treated at the ear on days 5, 10, 15, and 20 with GA-MNs or control MNs lacking GA (“Sucrose MN”). […] To analyze this approach in another inflammation model driven by a different myelin peptide—PLP, SJL/J mice were induced with relapsing-remitting EAE (RR-EAE) then treated on days 6, 9, and 12 (N=15/group) using equivalent doses 0.2 mg/treatment (tx) group of GA by MN or soluble i.p. injection.

[3] = test system: Experimental Autoimmune Encephalomyelitis (EAE); assay: Experimental Autoimmune Encephalomyelitis (EAE), progressive mouse model of MOG-driven inflammation
Experimental: as §1

For glatiramer acetate [GA], which “Number of TREG in cervical LNs” value [1] is on record?
Its value is “not observed”.

And the “Number of lymphocytes in cervical LNs” value [1]?
Its value is “not observed”.

What about the RR-EAE disease progression ([2]; listed as injectable GA) of the same substance?
Its RR-EAE disease progression is “does not”.

And the RR-EAE disease progression ([2]; listed as soluble GA)?
The RR-EAE disease progression was “no effect”.

What about the RR-EAE mean score ([2]; listed as injectable GA) of the same substance?
The RR-EAE mean score was “does not”.

And the RR-EAE mean score ([2]; listed as soluble GA)?
The RR-EAE mean score was “no effect”.

And the “EAE clinical score, effect of injected GA” value ([3]; daily GA injections i.p. 0.2 mg/day beginning at disease onset)?
The value was “ineffective”.

And the “EAE clinical score, dose dependence of daily GA dosing” value ([3]; daily GA injections i.p. at 0.2 or 2.0 mg/day beginning at disease onset)?
The value was “dose-dependent effects”.
